Data on 41 molecules can be found in patent US12421193B2, “GPR52 modulators and methods of use” (Neurocrine Biosciences, Inc., priority 2020, dated 2025).

This experiment concerns the target T1, recombinant human GPR52 (Homo sapiens, UniProt Q9Y2T5).
T1 construct: expressed in transfected cells
The experiment in a line: TR-FRET cAMP assay (LANCE Ultra cAMP Kit), GPR52 activity. Type of experiment: cell-based. The note with it: Flp-In-CHO cells stably expressing recombinant human GPR52; cAMP production, normalized to the positive control. How it is done: TR-FRET cAMP assays were performed using commercially available assay kits (LANCE™ Ultra cAMP Kit). Controls and compounds were solubilized in DMSO using ½ log dilution to generate duplicate 10-point dose response curves in 384-well polypropylene compound plates. Sixty nanoliters of the diluted compounds were transferred into 384-well NBS assay plates and further diluted to 1× with the addition of 2000 cells per well. Flp-In™—CHO cells that stably express recombinant human GPR52.
Cells were harvested with cell stripper and resuspended in Stimulation Buffer (5 mM HEPES, 0.1% bovine serum albumin (BSA), 0.5 mM IBMX, pH 7.4). After thirty minutes incubation at room temperature, detection reagents were added to each well. Plates were then incubated for 30 minutes at room temperature. The LANCE™ Ultra cAMP assay uses time-resolved fluorescence resonance energy transfer (TR-FRET) to detect cAMVP production; this signal was quantified using a Pherastar multi-mode plate reader.
Dose-response curves were generated from the fluorescence counts normalized to the positive control. E EC50 values were obtained using a nonlinear regression curve-fitting program.
For orientation: In TR-FRET formats the signal depends on donor and acceptor labels being close together.

Structures can show the parent of a compound that is named as a salt.

T1 sequence (Q9Y2T5 whole entry): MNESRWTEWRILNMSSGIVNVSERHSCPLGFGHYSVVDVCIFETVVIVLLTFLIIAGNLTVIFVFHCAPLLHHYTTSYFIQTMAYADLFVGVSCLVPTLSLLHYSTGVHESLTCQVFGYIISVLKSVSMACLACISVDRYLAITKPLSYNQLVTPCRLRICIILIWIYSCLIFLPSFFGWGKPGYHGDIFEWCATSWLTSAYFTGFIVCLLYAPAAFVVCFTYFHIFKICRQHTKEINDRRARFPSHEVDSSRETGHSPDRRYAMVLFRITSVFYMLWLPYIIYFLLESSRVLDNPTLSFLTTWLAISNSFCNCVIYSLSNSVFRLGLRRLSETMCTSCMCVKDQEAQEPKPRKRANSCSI

In the case of `Cc1cccc(OCc2ccnc(-c3ccc(C(N)=O)c(C)c3)c2)c1` [Example 38, 4-[4-(3-methylphenoxymethyl)pyridin-2-yl]-2-methyl benzamide], the EC50 – broadly, the concentration that produces a half-maximal response – is 25 to 100 nM.
In the case of `COc1ccc(OCc2cncc(-c3ccc(C(N)=O)c(C)c3)c2)cc1` [Example 98, 4-[5-(4-methoxyphenoxymethyl)pyridin-3-yl]-2-methylbenzamide], the EC50 lay within 25 to 100 nM.
On to `Cc1cc(-c2cc(COc3cc(F)cc(F)c3)ccn2)ccc1C(N)=O` [Example 15, 4-[4-(3,5-difluorophenoxymethyl)pyridin-2-yl]-2-methylbenzamide], for which the EC50 was 25 to 100 nM.
As for `CC(=O)c1cccc(OCc2ccnc(-c3ccc(C(N)=O)c(C)c3)c2)c1` [Example 43, 4-[4-(3-acetylphenoxymethyl)pyridin-2-yl]-2-methylbenzamide], the figure is 101 to 1000 nM; as for `COc1cc(OCc2ccnc(-c3ccc(C(N)=O)c(C)c3)c2)ccc1C(F)(F)F` [Example 58, 4-{4-[3-methoxy-4-(trifluoromethyl)phenoxymethyl]pyridin-2-yl}-2-methylbenzamide], 25 to 100 nM.
The value for `COc1cc(OCc2cncc(-c3ccc(C(N)=O)c(C)c3)c2)ccc1C(F)(F)F` [Example 101, 4-{5-[3-methoxy-4-(trifluoromethyl)phenoxymethyl]pyridin-3-yl}-2-methylbenzamide] was 101 to 1000 nM.
The value for `COc1ccc(OCc2cncc(-c3ccc(C(N)=O)c(C)c3)c2)c(Cl)c1` [Example 99, 4-[5-(2-chloro-4-methoxyphenoxymethyl)pyridin-3-yl]-2-methylbenzamide] was > 1000 nM; that for `Cc1cc(-c2cc(COc3ccc(F)c(Cl)c3)ccn2)ccc1C(N)=O` [Example 47, 4-[4-(3-chloro-4-fluorophenoxymethyl)pyridin-2-yl]-2-methylbenzamide] was < 25 nM; that for `Cc1cc(-c2cc(COc3cc(C(F)(F)F)nn3C)ccn2)ccc1C(N)=O` [Example 66, 4-[4-({[1-methyl-3-(trifluoromethyl)-1H-pyrazol-5-yl]oxy}methyl)pyridin-2-yl]2-methylbenzamide] was 25 to 100 nM.
Take `Cc1cc(-c2cc(COc3ccc(S(C)(=O)=O)cc3)ccn2)ccc1C(N)=O` [Example 6, 4-[4-(4-methanesulfonylphenoxymethyl)pyridin-2-yl]-2-methylbenzamide]: the EC50 is 101 to 1000 nM.
`Cc1cc(-c2cc(COc3cccc(S(C)(=O)=O)c3)ccn2)ccc1C(N)=O` [Example 5, 4-[4-(3-methanesulfonylphenoxymethyl)pyridin-2-yl]-2-methylbenzamide]: the EC50 was in the range of 101 to 1000 nM.
As for `Cc1cc(-c2cc(COc3ccc(F)c(F)c3)ccn2)ccc1C(N)=O` [Example 48, 4-[4-(3,4-difluorophenoxymethyl)pyridin-2-yl]-2-methylbenzamide], the figure is < 25 nM; as for `Cc1cc(F)ccc1OCc1ccnc(-c2ccc(C(N)=O)c(C)c2)c1` [Example 29, 4-[4-(4-fluoro-2-methylphenoxymethyl)pyridin-2-yl]-2-methylbenzamide], 101 to 1000 nM; as for `CSc1ccccc1OCc1ccnc(-c2ccc(C(N)=O)c(C)c2)c1` [Example 53, 4-{4-[2-(methylsulfanyl)phenoxymethyl]pyridin-2-yl}-2-methyl benzamide], 25 to 100 nM.
As for `COc1ccc2ccc(OCc3ccnc(-c4ccc(C(N)=O)c(C)c4)c3)cc2c1` [Example 21, 4-(4-{[(7-methoxynaphthalen-2-yl)oxy]methyl}pyridin-2-yl)-2-methylbenzamide], the EC50 was 25 to 100 nM.
On to `Cc1cc(-c2cc(COc3cc(F)c(F)c(Cl)c3)ccn2)ccc1C(N)=O` [Example 54, 4-[4-(3-chloro-4,5-difluorophenoxymethyl)pyridin-2-yl]-2-methylbenzamide], for which the EC50 is < 25 nM.
Consider `Cc1cc(-c2cncc(COc3ccc(F)cc3)c2)ccc1C(N)=O` [Example 97, 4-[5-(4-fluorophenoxymethyl)pyridin-3-yl]-2-methylbenzamide], for which the EC50 was > 1000 nM.
As for `Cc1cc(OCc2ccnc(-c3ccc(C(N)=O)c(C)c3)c2)ccc1F` [Example 27, 4-[4-(4-fluoro-3-methylphenoxymethyl)pyridin-2-yl]-2-methylbenzamide], the figure is 101 to 1000 nM; as for `Cc1cc(-c2cc(COc3ccc(F)cc3)ccn2)ccc1C(N)=O` [Example 12, 4-[4-(4-fluorophenoxymethyl)pyridin-2-yl]-2-methylbenzamide], 25 to 100 nM.
As for `CC(=O)Nc1cccc(OCc2ccnc(-c3ccc(C(N)=O)c(C)c3)c2)c1` [Example 35, 4-[4-(3-acetamidophenoxymethyl)pyridin-2-yl]-2-methylbenzamide], the figure is 101 to 1000 nM; as for `COc1ccc(OCc2ccnc(-c3ccc(C(N)=O)c(C)c3)c2)cc1OC` [Example 17, 4-[4-(3,4-dimethoxyphenoxymethyl)pyridin-2-yl]-2-methylbenzamide], 101 to 1000 nM.
As for `COc1ccc(OCc2ccnc(-c3ccc(C(N)=O)c(C)c3)c2)c2ccccc12` [Example 19, 4-(4-{[(4-methoxynaphthalen-1-yl)oxy]methyl}pyridin-2-yl)-2-methylbenzamide], the figure is 101 to 1000 nM; as for `COc1cc(Cl)cc(OCc2ccnc(-c3ccc(C(N)=O)c(C)c3)c2)c1` [Example 24, 4-[4-(3-chloro-5-methoxyphenoxymethyl)pyridin-2-yl]-2-methylbenzamide], 25 to 100 nM.
For the molecule `COc1ccc(OCc2ccnc(-c3ccc(C(N)=O)c(C)c3)c2)c(Cl)c1` [Example 22, 4-[4-(2-chloro-4-methoxyphenoxymethyl)pyridin-2-yl]-2-methylbenzamide], the EC50 was < 25 nM.
`Cc1cc(-c2ccnc(COc3cc(F)cc(F)c3)c2)ccc1C(N)=O` [Example 85, 4-[2-(3,5-difluorophenoxymethyl)pyridin-4-yl]-2-methylbenzamide]: the EC50 lay in the range of 101 to 1000 nM.
In the case of `Cc1cc(-c2cc(COc3ccc(C(F)(F)F)cc3)ccn2)ccc1C(N)=O` [Example 1, 4-{4-[4-(trifluoromethyl)phenoxymethyl]pyridin-2-yl}2-methyl-benzamide hydrochloride], the EC50 fell in the range of 25 to 100 nM.
As for `NC(=O)c1ccc(-c2cc(COc3ccc(C(F)(F)F)cc3)ccn2)cc1Cl` [Example 76, 4-{4-[4-(trifluoromethyl)phenoxymethyl]pyridin-2-yl}2-chlorobenzamide], the figure is < 25 nM; as for `Cc1cc(-c2ccnc(COc3cc(F)c(F)c(F)c3)c2)ccc1C(N)=O` [Example 83, 4-[2-(3,4,5-trifluorophenoxymethyl)pyridin-4-yl]-2-methylbenzamide], 101 to 1000 nM; as for `CCc1ccccc1OCc1ccnc(-c2ccc(C(N)=O)c(C)c2)c1` [Example 32, 4-[4-(2-ethylphenoxymethyl)pyridin-2-yl]-2-methylbenzamide], 101 to 1000 nM.
Take `Cc1cc(-c2cc(COc3cccc(C(F)(F)F)c3)ccn2)ccc1C(N)=O` [Example 2, 4-{4-[3-(trifluoromethyl)phenoxymethyl]pyridin-2-yl}-2-methyl benzamide]: the EC50 is < 25 nM.
For `Cc1cc(-c2cc(COc3cccc(Cl)c3F)ccn2)ccc1C(N)=O` [Example 50, 4-[4-(3-chloro-2-fluorophenoxymethyl)pyridin-2-yl]-2-methylbenzamide], the EC50 was in the range of 25 to 100 nM.
As for `Cc1cc(-c2cc(COc3cccc(F)c3F)ccn2)ccc1C(N)=O` [Example 52, 4-[4-(2,3-difluorophenoxymethyl)pyridin-2-yl]-2-methylbenzamide], the figure is 25 to 100 nM.
The value for `Cc1cc(-c2ccnc(COc3ccc4c(c3)OCC4)c2)ccc1C(N)=O` [Example 88, 4-{2-[(2,3-dihydro-1-benzofuran-6-yloxy)methyl]pyridin-4-yl}-2-methylbenzamide] was < 25 nM; that for `Cc1cc(OCc2ccnc(-c3ccc(C(N)=O)c(C)c3)c2)ccc1Cl` [Example 28, 4-[4-(4-chloro-3-methylphenoxymethyl)pyridin-2-yl]-2-methylbenzamide] was 101 to 1000 nM; that for `Cc1cc(-c2cc(COc3ccc(C#N)c(F)c3)ccn2)ccc1C(N)=O` [Example 4, 4-[4-(4-cyano-3-fluorophenoxymethyl)pyridin-2-yl]-2-methylbenzamide hydrochloride] was 25 to 100 nM.
As for `Cc1cc(-c2cc(COc3ccc(Cl)c(C#N)c3)ccn2)ccc1C(N)=O` [Example 49, 4-[4-(4-chloro-3-cyanophenoxymethyl)pyridin-2-yl]-2-methylbenzamide], the figure is 25 to 100 nM; as for `Cc1cc(-c2cc(COC3CCCCC3)ccn2)ccc1C(N)=O` [Example 104, 4-{4-[(cyclohexyloxy)methyl]pyridin-2-yl}-2-methylbenzamide], 101 to 1000 nM.
For the molecule `Cc1cc(-c2cc(COc3cccc(C(F)F)c3)ccn2)ccc1C(N)=O` [Example 67, 4-{4-[3-(difluoromethyl)phenoxymethyl]pyridin-2-yl}-2-methylbenzamide], the EC50 is < 25 nM.
On to `Cc1ccc(F)c(OCc2ccnc(-c3ccc(C(N)=O)c(C)c3)c2)c1` [Example 14, 4-[4-(2-fluoro-5-methylphenoxymethyl)pyridin-2-yl]-2-methylbenzamide], for which the EC50 was 101 to 1000 nM.
The value for `CC(=O)c1ccc(OCc2ccnc(-c3ccc(C(N)=O)c(C)c3)c2)cc1F` [Example 60, 4-[4-(4-acetyl-3-fluorophenoxymethyl)pyridin-2-yl]-2-methylbenzamide] was < 25 nM; that for `CCC(=O)c1ccc(OCc2ccnc(-c3ccc(C(N)=O)c(C)c3)c2)cc1` [Example 59, 4-[4-(4-propanoylphenoxymethyl)pyridin-2-yl]2-methylbenzamide] was 101 to 1000 nM.
